Measured values from PubChem BioAssay AID2060505 (Molecular Pharmacology Branch, DTP, NCI, 2025).

System: 633275-114-R-J1-PDC complex spheroids, viability
Assay: Anticancer human tumor 633275-114-R-J1-PDC patient-derived endometrial adenocarcinoma cell line growth inhibition [GQUAD]
Details: for IC50: curve of first compound; for viability, T/C: stronger effect = lower value; active = viability on the fitted dose curve at most 10% of control; inactive = the rest
How it was run: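 Viability of tumor cells grown as complex spheroids with endothelial and stromal cells, exposed to drug combinations. Top concentration at or near clinical Cmax (else 10 microM), diluted in half-log increments.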

[1] = second compound 0.0316 µM, first compound 0.0316 µM
[2] = second compound 0.0316 µM, first compound 0.1 µM
[3] = second compound 0.0316 µM, first compound 0.316 µM
[4] = second compound 0.0316 µM, first compound 1 µM
[5] = second compound 0.0316 µM, first compound 3.16 µM
[6] = second compound 0.0316 µM, first compound 10 µM
[7] = second compound 0.1 µM, first compound 0.0316 µM
[8] = second compound 0.1 µM, first compound 0.1 µM
[9] = second compound 0.1 µM, first compound 0.316 µM
[10] = second compound 0.1 µM, first compound 1 µM
[11] = second compound 0.1 µM, first compound 3.16 µM
[12] = second compound 0.1 µM, first compound 10 µM
[13] = second compound 0.316 µM, first compound 0.0316 µM
[14] = second compound 0.316 µM, first compound 0.1 µM
[15] = second compound 0.316 µM, first compound 0.316 µM
[16] = second compound 0.316 µM, first compound 1 µM
[17] = second compound 0.316 µM, first compound 3.16 µM
[18] = second compound 0.316 µM, first compound 10 µM
[19] = second compound 1 µM, first compound 0.0316 µM
[20] = second compound 1 µM, first compound 0.1 µM
[21] = second compound 1 µM, first compound 0.316 µM
[22] = second compound 1 µM, first compound 1 µM
[23] = second compound 1 µM, first compound 3.16 µM
[24] = second compound 1 µM, first compound 10 µM
[25] = second compound 3.16 µM, first compound 0.0316 µM
[26] = second compound 3.16 µM, first compound 0.1 µM
[27] = second compound 3.16 µM, first compound 0.316 µM
[28] = second compound 3.16 µM, first compound 1 µM
[29] = second compound 3.16 µM, first compound 3.16 µM
[30] = second compound 3.16 µM, first compound 10 µM
[31] = second compound 10 µM, first compound 0.0316 µM
[32] = second compound 10 µM, first compound 0.1 µM
[33] = second compound 10 µM, first compound 0.316 µM
[34] = second compound 10 µM, first compound 1 µM
[35] = second compound 10 µM, first compound 3.16 µM
[36] = second compound 10 µM, first compound 10 µM
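Also: spheroids exposed to the agents for seven days.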
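For viability, T/C in this document: percent of DMSO vehicle control viability which is 100%.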

Nc1ccn(C2OC(CO)C(O)C2(F)F)c(=O)n1 (stereo unspecified) + Cc1cnc(CNC(=O)c2c(=O)c3ccc(N4CCCN(C)CC4)nc3n3c2sc2ccccc23)cn1
< 31.6 nM: IC50 (second compound 0.0316 µM) | IC50 (second compound 0.1 µM) | IC50 (second compound 0.316 µM) | IC50 (second compound 1 µM) | IC50 (second compound 3.16 µM) | IC50 (second compound 10 µM)
inactive: viability, T/C [1] 26.8% | viability, T/C [2] 22.2% | viability, T/C [3] 21.5% | viability, T/C [4] 21.3% | viability, T/C [5] 20.6% | viability, T/C [6] 19.9% | viability, T/C [7] 27.8% | viability, T/C [8] 23.1% | viability, T/C [9] 22.4% | viability, T/C [10] 19.9% | viability, T/C [11] 24.2% | viability, T/C [12] 19.5% | viability, T/C [13] 24.7% | viability, T/C [14] 25.8% | viability, T/C [15] 22.4% | viability, T/C [16] 22.9% | viability, T/C [17] 21.9% | viability, T/C [18] 19.5% | viability, T/C [19] 25.5% | viability, T/C [20] 23.8% | viability, T/C [21] 22.7% | viability, T/C [22] 24% | viability, T/C [23] 23% | viability, T/C [24] 19.4% | viability, T/C [25] 25.7% | viability, T/C [26] 23.6% | viability, T/C [27] 21.7% | viability, T/C [28] 22% | viability, T/C [29] 21.5% | viability, T/C [30] 20.9% | viability, T/C [31] 26.6% | viability, T/C [32] 22.3% | viability, T/C [33] 22.6% | viability, T/C [34] 23.3% | viability, T/C [35] 20.7% | viability, T/C [36] 17.9%

COc1cc(C2c3cc4c(cc3C(OC3OC5COC(C)OC5C(O)C3O)C3COC(=O)C23)OCO4)cc(OC)c1O (stereo unspecified) + CN(C)c1ccc(Nc2c3ccc(NC(=O)CCN4CCCC4)cc3nc3cc(NC(=O)CCN4CCCC4)ccc23)cc1
< 31.6 nM: IC50 (second compound 10 µM)
171 nM: IC50 (second compound 3.16 µM)
inactive: viability, T/C [1] 81.6% | viability, T/C [2] 64.5% | viability, T/C [3] 47.3% | viability, T/C [4] 40.9% | viability, T/C [5] 33.7% | viability, T/C [6] 30.3% | viability, T/C [7] 80.2% | viability, T/C [8] 64.8% | viability, T/C [9] 44.7% | viability, T/C [10] 41.4% | viability, T/C [11] 32.6% | viability, T/C [12] 26.9% | viability, T/C [13] 84.3% | viability, T/C [14] 69.7% | viability, T/C [15] 48.4% | viability, T/C [16] 36.8% | viability, T/C [17] 38.4% | viability, T/C [18] 29.8% | viability, T/C [19] 75.4% | viability, T/C [20] 59.5% | viability, T/C [21] 52.1% | viability, T/C [22] 38.7% | viability, T/C [23] 36.7% | viability, T/C [24] 26.7% | viability, T/C [25] 71.7% | viability, T/C [26] 53.7% | viability, T/C [27] 43.6% | viability, T/C [28] 36.4% | viability, T/C [29] 37.5% | viability, T/C [30] 26% | viability, T/C [31] 25.5% | viability, T/C [32] 19.9% | viability, T/C [33] 18.5% | viability, T/C [34] 17.5% | viability, T/C [35] 16.3% | viability, T/C [36] 10.7%
334 nM: IC50 (second compound 1 µM)
296 nM: IC50 (second compound 0.316 µM)
295 nM: IC50 (second compound 0.0316 µM)
284 nM: IC50 (second compound 0.1 µM)

O=C(c1cc(Cc2n[nH]c(=O)c3ccccc23)ccc1F)N1CCN(C(=O)C2CC2)CC1 + Cc1cnc(CNC(=O)c2c(=O)c3ccc(N4CCCN(C)CC4)nc3n3c2sc2ccccc23)cn1
9930 nM: IC50 (second compound 0.0316 µM)
inactive: viability, T/C [1] 63% | viability, T/C [2] 60.9% | viability, T/C [3] 71.4% | viability, T/C [4] 58.2% | viability, T/C [5] 57.2% | viability, T/C [6] 50.3% | viability, T/C [7] 49.5% | viability, T/C [8] 47.9% | viability, T/C [9] 49.1% | viability, T/C [10] 48.9% | viability, T/C [11] 41.9% | viability, T/C [12] 42.8% | viability, T/C [13] 46.6% | viability, T/C [14] 42.7% | viability, T/C [15] 43.7% | viability, T/C [16] 38.9% | viability, T/C [17] 44% | viability, T/C [18] 33.7% | viability, T/C [19] 37.7% | viability, T/C [20] 35.3% | viability, T/C [21] 45.3% | viability, T/C [22] 42.6% | viability, T/C [23] 37% | viability, T/C [24] 35.1% | viability, T/C [25] 37.8% | viability, T/C [26] 38.9% | viability, T/C [27] 42.2% | viability, T/C [28] 30.9% | viability, T/C [29] 34.3% | viability, T/C [30] 31% | viability, T/C [31] 33.4% | viability, T/C [32] 31.2% | viability, T/C [33] 28.5% | viability, T/C [34] 30.9% | viability, T/C [35] 33.7% | viability, T/C [36] 29.8%
43.6 nM: IC50 (second compound 0.1 µM)
< 31.6 nM: IC50 (second compound 0.316 µM) | IC50 (second compound 1 µM) | IC50 (second compound 3.16 µM) | IC50 (second compound 10 µM)
